According to patent publication US11518758B2, “Heteroarylaminopyrimidine amide autophagy inhibitors and methods of use thereof” (Deciphera Pharmaceuticals, LLC, priority 2019, dated 2022):

What was measured:
ULK2 kinase = target: T1, ULK2 kinase (Homo sapiens, UniProt Q8IYT8); test: Biochemical assay for ULK2 (coupled pyruvate kinase/lactate dehydrogenase assay); conditions: 9.7 nM ULK2 (Eurofins), myelin basic protein, 1 mM ATP; read-out: ULK2.2
T1 construct: purchased Eurofins 14-772
Procedure, shortened: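 Continuous PK/LDH-coupled NADH-oxidation assay with 9.7 nM ULK2, 0.25 mg/mL myelin basic protein and 1 mM ATP in Tris pH 7.5, MgCl2, DTT buffer, 1% DMSO. A340 followed 6 h at 30° C; rates from 2-3 h window converted to % inhibition, IC50 from four-parameter fit.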

[1] = system: phospho-Serine 318 ATG13 (pATG13), ULK kinase substrate, in A549 (KRAS mutant) cells; test: pATG13 levels of mutant KRas A549 cells after treatment with ULK inhibitors in combination with trametinib (ELISA); type: cell-based, human; conditions: with 250 nM trametinib
Procedure, shortened: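 A549 cells grown overnight were treated overnight at 37 °C with a dose response of test compound plus 250 nM trametinib (final) or DMSO. Lysates were assayed by sandwich ELISA, with total ATG13 capture and biotinylated pS318-ATG13 detection read at 450 nm minus 540 nm, giving % phosphorylation against control and IC50.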

[2] = system: phospho-Serine 318 ATG13 (pATG13) in MiaPaCa-2 cells; test: pATG13 levels of mutant KRas MiaPaCa-2 cells after treatment with ULK inhibitors in combination with trametinib (ELISA); type: cell-based, human
Method: Example 178. pATG13 Levels of Mutant KRas MiaPaCa-2 Cells after Treatment with ULK Inhibitors in Combination with Trametinib
MiaPaCa-2 human pancreatic cancer cells (10000 cells/well) were added to a 384-well tissue-culture treated plate in 50 μL of pre-warmed DMEM medium supplemented with 10% characterized fetal bovine serum (Invitrogen, Carlsbad, Calif.), 100 units/mL penicillin G, 100 μg/mL streptomycin, and 2.5% Horse Serum and allowed to grow overnight at 37° C., 5% CO2, and 95% humidity. The following day, 10 μL of media containing trametinib or DMSO as a control was added to wells. The final concentration of trametinib in wells was 250 nM. A dose response of a test compound (0.6 μL per well) was added. DMSO (0.6 μL) was added to control wells. The plate was briefly shaken to mix wells and then incubated at 37° C. overnight. The next day, the media was aspirated and cells were washed with Dulbecco's Phosphate Buffered Saline (Gibco). Cells were lysed using MPER lysis buffer (Pierce, Rockford, Ill.) containing Halt Phosphatase and Protease Inhibitors (Pierce, Rockford, Ill.) and Phosphatase inhibitor cocktail 2 (Sigma, St. Louis, Mo.) at 4° C. for 10 minutes with shaking.
Cellular levels of phospho-Serine 318 ATG13 (pATG13) were measured via an ELISA method. Total ATG13 Antibody (Cell Signaling Cat #13273) was used to coat the wells. The plate was incubated at 4° C. overnight and washed with ELISA wash buffer (Biolegend Cat #421601). The wells were then blocked with assay diluent (Biolegend Cat #421203) for 1 hour at room temperature. Plate wells were washed with ELISA wash buffer. Cell lysate was added to wells and incubated at room temperature for 2 hours. Plate wells were washed with ELISA wash buffer. Biotinylated pS318-ATG13 antibody (Rockland Immunochemicals Cat #600-401-C49) was diluted in assay diluent and added to each well and incubated at room temperature for 1 hour. Plate wells were washed with ELISA wash buffer. Streptavidin linked to horseradish peroxidase (Thermo Fisher Cat #21140) was diluted in assay diluent and added to each well and incubated at room temperature for 1 hour. Plate wells were washed with ELISA wash buffer. High sensitivity TMB substrate (Biolegend Cat #421101) was added to each well and incubated at room temperature for 20 minutes. The reaction was stopped with 2N Sulfuric Acid. The plate was analyzed at on a plate reader measuring absorbance at 450 nm and 540 nm (background). Signal was calculated by first subtracting the background absorbance at 540 nm from the absorbance at 450 nm for each well. Next, the background corrected absorbance at 450 nm from blank wells was subtracted from test wells. Data was compared to control wells to determine % ATG13 phosphorylation. GraphPad Prism was used to calculate IC50 values.

T1 sequence (Q8IYT8 with tags, fused parts or gaps): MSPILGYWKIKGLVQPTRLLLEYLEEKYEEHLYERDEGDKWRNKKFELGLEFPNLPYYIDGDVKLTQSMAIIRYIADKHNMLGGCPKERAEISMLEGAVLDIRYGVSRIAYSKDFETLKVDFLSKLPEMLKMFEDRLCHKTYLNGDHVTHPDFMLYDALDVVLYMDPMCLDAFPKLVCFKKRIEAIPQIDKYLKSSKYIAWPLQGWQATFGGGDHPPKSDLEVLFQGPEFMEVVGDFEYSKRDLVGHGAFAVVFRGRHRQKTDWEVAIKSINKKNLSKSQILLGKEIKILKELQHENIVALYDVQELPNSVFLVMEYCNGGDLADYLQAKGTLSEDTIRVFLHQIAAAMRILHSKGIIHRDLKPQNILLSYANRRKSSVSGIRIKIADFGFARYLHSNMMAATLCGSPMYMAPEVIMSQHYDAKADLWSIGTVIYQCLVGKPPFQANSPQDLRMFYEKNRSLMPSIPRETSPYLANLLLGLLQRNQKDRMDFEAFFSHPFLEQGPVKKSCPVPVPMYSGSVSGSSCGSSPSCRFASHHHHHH

Compound | IC50 (ULK2 kinase) [nM] | IC50 [1] [nM] | IC50 [2] [nM]
CC(C)N1CCC(n2cc(Nc3ncc(C(F)(F)F)c(NCCCN4CCCCC4=O)n3)cn2)CC1 [Example 6] | 25 to 100 | 10 to 100 | 10 to 100
Cc1nn(C2CCN(C)CC2)cc1Nc1ncc(C(F)(F)F)c(NCCCN2CCCCC2=O)n1 [Example 8] | 25 to 100 | 10 to 100 | –
Cc1nn(C2CCN(C(C)C)CC2)cc1Nc1ncc(C(F)(F)F)c(NCCCN2CCCCC2=O)n1 [Example 15] | 100 to 500 | 10 to 100 | 10 to 100
Cc1nn([C@@H]2CCN(C)C2)cc1Nc1ncc(C(F)(F)F)c(NCCCN2CCCCC2=O)n1 [Example 18] | 25 to 100 | 100 to 300 | –
Cc1nn(CCN(C)C)cc1Nc1ncc(C(F)(F)F)c(NCCCN2CCCCC2=O)n1 [Example 21] | 100 to 500 | 300 to 600 | 100 to 300
CN(C)CCn1cc(Nc2ncc(C(F)(F)F)c(NCCCN3CCCCC3=O)n2)cn1 [Example 32] | 100 to 500 | 100 to 300 | 10 to 100
CCc1nn(C2CCN(C)CC2)cc1Nc1ncc(Br)c(NCCCN2CCCCC2=O)n1 [Example 53] | 100 to 500 | 100 to 300 | 100 to 300
Cc1nn([C@H]2CCN(C)C2)cc1Nc1ncc(Br)c(NCCCN2CCCCC2=O)n1 [Example 61] | 100 to 500 | 100 to 300 | 10 to 100
CCN1CC[C@H](n2cc(Nc3ncc(Br)c(NCCCN4CCCCC4=O)n3)c(C)n2)C1 [Example 64] | > 500 | 100 to 300 | 10 to 100
Cc1nn(C2CCN(C(C)C)CC2)cc1Nc1ncc(C(F)(F)F)c(NCCCN2CCCOC2=O)n1 [Example 68] | 100 to 500 | 300 to 600 | 10 to 100
Cc1nn(C2CCN(C)CC2)cc1Nc1ncc(C(F)(F)F)c(NCCCN2CCCCCC2=O)n1 [Example 79] | 1 to 25 | 10 to 100 | 10 to 100
Cc1nn(CCCN2CCOCC2)cc1Nc1ncc(C(F)(F)F)c(NCCCN2CCCCCC2=O)n1 [Example 100] | 100 to 500 | 100 to 300 | 100 to 300
Cc1nn(C2CCN(C)CC2)cc1Nc1ncc(C(F)(F)F)c(NCCCN2CCCOCC2=O)n1 [Example 102] | 25 to 100 | 100 to 300 | 10 to 100
Cc1nn(C2CCN(C)CC2)cc1Nc1ncc(Cl)c(NCCCN2CCCOCC2=O)n1 [Example 105] | > 500 | > 600 | 100 to 300
Cc1nn([C@@H]2CCN(C)C2)cc1Nc1ncc(C(F)(F)F)c(NCCCN2CCCOCC2=O)n1 [Example 106] | 100 to 500 | 100 to 300 | 10 to 100
CCN1CCC(n2cc(Nc3ncc(C(F)(F)F)c(NCCCN4CCCOCC4=O)n3)c(C)n2)CC1 [Example 107] | 100 to 500 | 100 to 300 | 100 to 300
Cc1nn(C2CCN(C(C)C)CC2)cc1Nc1ncc(C(F)(F)F)c(NCCCN2CCCOCC2=O)n1 [Example 108] | > 500 | 300 to 600 | 100 to 300
Cc1nn(C2CCN(C)CC2)cc1Nc1ncc(C(F)(F)F)c(NCCCN2CCOCCC2=O)n1 [Example 127] | 100 to 500 | 100 to 300 | 10 to 100
CCN1CCC(n2cc(Nc3ncc(C(F)(F)F)c(NCCCN4CCOCCC4=O)n3)c(C)n2)CC1 [Example 130] | 100 to 500 | 100 to 300 | 10 to 100
Cc1nn(C2CCN(C(C)C)CC2)cc1Nc1ncc(C(F)(F)F)c(NCCCN2CCOCCC2=O)n1 [Example 131] | > 500 | 300 to 600 | 100 to 300
